Measured values: BindingDB's records for doi:10.7270/Q24X5684 (Nmmlsc, 2010)
pEC50: −log10 of the molar value.

Molecular target: T1, Integrin alpha-4 (Homo sapiens, UniProt P13612)
T1 sequence (P13612 whole entry): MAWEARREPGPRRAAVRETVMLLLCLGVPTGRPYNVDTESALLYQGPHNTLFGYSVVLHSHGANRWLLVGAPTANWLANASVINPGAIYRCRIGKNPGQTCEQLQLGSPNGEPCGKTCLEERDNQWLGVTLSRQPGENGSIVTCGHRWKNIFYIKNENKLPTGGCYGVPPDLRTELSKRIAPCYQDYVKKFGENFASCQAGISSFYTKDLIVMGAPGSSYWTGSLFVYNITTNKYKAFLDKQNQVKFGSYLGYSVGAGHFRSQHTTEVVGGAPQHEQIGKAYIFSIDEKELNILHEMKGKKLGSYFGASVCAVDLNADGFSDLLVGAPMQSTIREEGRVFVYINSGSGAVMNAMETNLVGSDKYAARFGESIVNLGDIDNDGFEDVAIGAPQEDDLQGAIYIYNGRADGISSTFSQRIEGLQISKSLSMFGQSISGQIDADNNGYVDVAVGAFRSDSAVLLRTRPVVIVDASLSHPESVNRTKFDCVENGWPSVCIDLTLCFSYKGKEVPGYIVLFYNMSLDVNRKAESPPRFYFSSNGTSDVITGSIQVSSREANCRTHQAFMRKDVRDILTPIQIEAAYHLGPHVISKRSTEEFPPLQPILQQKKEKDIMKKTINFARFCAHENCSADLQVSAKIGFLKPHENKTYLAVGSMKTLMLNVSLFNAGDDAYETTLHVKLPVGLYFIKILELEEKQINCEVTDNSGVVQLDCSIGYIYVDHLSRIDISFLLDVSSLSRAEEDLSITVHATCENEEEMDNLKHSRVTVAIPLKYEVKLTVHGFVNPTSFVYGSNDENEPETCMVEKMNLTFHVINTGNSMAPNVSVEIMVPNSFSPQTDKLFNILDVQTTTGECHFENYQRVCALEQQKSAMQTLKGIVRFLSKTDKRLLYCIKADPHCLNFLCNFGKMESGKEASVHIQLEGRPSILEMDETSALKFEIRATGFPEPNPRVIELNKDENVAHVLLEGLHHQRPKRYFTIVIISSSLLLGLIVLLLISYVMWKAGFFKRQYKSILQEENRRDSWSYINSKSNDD
Assay: VLA-4 integrin allosteric ligands, SAR follow-up, cell-based, LIBS antibody binding, flow cytometry (AID 488791)

pEC50 | SMILES
4.79 | Cc1ccc(NC(=O)c2cc(-n3c(O)ccc3O)ccc2N2CCOCC2)cc1
4.63 | Cc1ccc(NC(=O)c2cc(-n3c(O)ccc3O)ccc2N2CCOCC2)cc1Cl [VU0419498-1]
